Results taken from patent publication US6764855B2, “Fluorescent hplc assay for 20-hete and other p-450 metabolites of arachidonic acid” (MCW Research Foundation, priority 2000, dated 2004).

How the values were obtained:
P-4504A enzyme = P-4504A enzyme activity (20-HETE production) in renal cortical microsomes from treated rats; type: in vivo
Source text: SHR and normotensive Sprague-Dawley rats were placed in special metabolic cages (model 650-00350; Nalgene, Rochester, N.Y.) that efficiently separated urine from food and feces and were allowed to equilibrate for 5 days. After 5 days, the food was withdrawn from the rat to prevent contamination of the urine sample and a 24-h control urine sample was collected on dry ice. After the control sample was collected, food was returned to the rats, and after a 2-day recovery period, the rats received an intraperitoneal injection of ABT (50 mg/kg) followed by a second (50 mg/kg) injection 12 h later. Two hours after administration of the first dose of ABT, food was withdrawn and a 24-h experimental urine sample was collected on dry ice. After the urine was collected, the rats were killed with pentobarbital sodium (100 mg/kg ip), and the kidneys were collected. The renal cortex was separated from the renal medulla, frozen in liquid nitrogen, and stored overnight for measurement of the renal metabolism of AA. Briefly, the renal cortex was homogenized in a 10 mM potassium phosphate buffer (pH 7.7) containing 250 mM sucrose, 1 mM EDTA, and 10 mM magnesium chloride, and microsomes were prepared by differential centrifugation. […] The radioactive products were monitored using a radioactive flow detector (model 120; Radiomatic Instrument, Tampa, Fla.).

[1] = system: urinary excretion of 20-HETE; assay: Effect of an irreversible P-450 inhibitor on the urinary excretion of 20-HETE; type: in vivo, rats; conditions: ABT 50 mg/kg ip, second 50 mg/kg injection 12 h later, 24-h urine vs control
Protocol: To label the fatty acids, we resuspended samples, which were extracted and dried under argon, in 20 μl of acetonitrile containing 36.4 mM 2-(2,3-naphthalimino)ethyl trifluoromethanesulfonate. N,N-diisopropylethylamine (10 μl) was added to catalyze the reaction. The sample was reacted for 30 min at room temperature. The reactions were dried down under argon, resuspended in 1 ml of 20% acetonitrile:water, and applied to a Sep-Pak Vac column. The column was washed with 6 ml of 50% acetonitrile:water solution to remove unreacted dye and eluted with 500 μl of ethyl acetate. The eluent was dried under argon, and the samples were resuspended in 100 μl of the IPLC mobile phase (methanol:water:acetic acid, 82:18:0.1 vol/vol/vol). […] Fluorescence intensity was continuously monitored using a fluorescence detector (model L-7480; Hitachi, Naperville, Ill.) at a medium gain sensitivity. The amount of 20-HETE in the sample was determined by comparing the area of the 20-HETE peak to that of an internal standard. […]
SHR and normotensive Sprague-Dawley rats were placed in special metabolic cages (model 650-00350; Nalgene, Rochester, N.Y.) that efficiently separated urine from food and feces and were allowed to equilibrate for 5 days. […] The radioactive products were monitored using a radioactive flow detector (model 120; Radiomatic Instrument, Tampa, Fla.).

20-HETE production by renal cortical microsomes (P-4504A enzyme; microsomes from kidneys of ABT-treated SHR (n=4), vehicle 459±192): 12±4 pmol●min^−1●mg^−1 | 20-HETE production by renal cortical microsomes (P-4504A enzyme; microsomes from kidneys of ABT-treated Sprague-Dawley rats (n=5), vehicle 324±25): 25±3 pmol●min^−1●mg^−1
Structure (SMILES): Nn1nnc2ccccc21 [ABT, 1-aminobenzotriazole]
fall in urinary excretion of 20-HETE after administration of ABT ([1]; SHR (n=4)): 65±10% | fall in urinary excretion of 20-HETE after administration of ABT ([1]; Sprague-Dawley rats (n=5)): 74±9%
